A short description of assay [1]: Bleaching of tomato stains on cotton swatches (Example 1). As to conditions: detergent wash solution 2 g/l, 1 hour at 30° C. The procedure:
The potential of the enhancer, Ethanedioic acid, 2-[(4-aminophenyl)sulfonyl)hydrazide-2-phenylhydrazide, to boost the bleach performance of phenol oxidizing enzyme was assessed by washing cotton swatches soiled with tomato stains
Purified phenol oxidizing enzyme from Acremonium murorum was added to the wash solution at 100 mg/l. The enzyme from Acremonium murorum is described in WO-A-00/05349 (Unilever). The enhancer was dosed at 250 μM. The following formulation was used as wash solution (2 g/l): […]
The swatches were washed during 1 hour at 30° C. After the wash, the swatches were tumble-dried and the reflectance spectra were measured using a Minolta spectrometer. The color differences between the swatch before and after the wash data were expressed in the CIELAB L*a*b* color space. In this color space, L* indicates lightness and a* and b* are the chromaticity coordinates. Color differences between two swatches are expressed as ΔE, which is calculated from the following equation:
ΔE={square root over (ΔL^2+Δa^2+Δb^2+L )}
Table 1: Stain bleach performance of the phenol oxidizing enzyme/enhancer system on tomato stains in the presence of different enhancers.

Assay [2] is described as follows: Bleaching of tomato stains on cotton swatches (Example 2). The note with it: enhancer 250 μM + enzyme 20 mg/l; detergent formulation pH 9; 30 minutes at 30 C. The procedure: Stain bleach experiments were performed as in Example 1, except that 20 mg/l enzymes was used. The detergent formulation was set at pH 9, and the swatches washed during 30 minutes at 30 C.
Table 2: Stain bleach performance of the phenol oxidizing enzyme/enhancer system on tomato stains in the presence of the enzymatic bleach system.

Turning to `Nc1ccc(S(=O)(=O)NNC(=O)C(=O)NNc2ccccc2)cc1` [enhancer, Ethanedioic acid, 2-[(4-aminophenyl)sulfonyl)hydrazide-2-phenylhydrazide], the “ΔE (CIELAB colour difference of swatch before and after wash), wash with enzyme and enhancer added” value in assay [1] (enhancer 250 μM + phenol oxidizing enzyme from Acremonium murorum 100 mg/l) is “ΔE = 11.9”; in assay [2], “ΔE = 10.6”. Besides, the “ΔE (CIELAB colour difference of swatch before and after wash), wash with enhancer only” value in assay [1] (enhancer 250 μM, no enzyme) is given as “ΔE = 9.1”.
